# pKi: −log10 of the molar value.
# Legend:
# Prothrombin = Prothrombin (Homo sapiens, UniProt P00734); experiment: Inhibitory activity against human thrombin
# Coagulation factor X = Coagulation factor X (Homo sapiens, UniProt P00742); experiment: Inhibition of Coagulation factor Xa
# Sequence of Coagulation factor X (P00742 41-179 limits assumed): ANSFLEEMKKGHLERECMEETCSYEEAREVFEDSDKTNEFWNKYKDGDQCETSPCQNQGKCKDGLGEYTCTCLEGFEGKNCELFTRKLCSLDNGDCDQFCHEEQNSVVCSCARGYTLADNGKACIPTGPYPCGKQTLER
# Sequence of Coagulation factor X (P00742 235-488 limits assumed): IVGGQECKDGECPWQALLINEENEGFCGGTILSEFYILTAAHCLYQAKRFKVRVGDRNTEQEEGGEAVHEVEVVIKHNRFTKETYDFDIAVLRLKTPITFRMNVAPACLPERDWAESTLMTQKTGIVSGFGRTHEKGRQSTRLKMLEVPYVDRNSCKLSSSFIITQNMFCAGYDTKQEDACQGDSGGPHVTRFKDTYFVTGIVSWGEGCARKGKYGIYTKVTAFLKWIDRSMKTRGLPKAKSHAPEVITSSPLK
SMILES,pKi (Prothrombin),pKi (Coagulation factor X)
Cc1cccc2c1cc(C(=O)NCc1cc(Cl)cc(Cl)c1)n2Cc1cccc(C(=N)N)c1,5.79,
N=C(N)c1ccc(CNC(=O)c2cc3c(O)cccc3n2Cc2cccc(C(=N)N)c2)cc1,5.38,
N=C(N)c1cccc(Cn2c(C(=O)NCc3cc(Cl)cc(Cl)c3Cl)cc3c(O)cccc32)c1,6.57,7.00
Cc1cccc2c1cc(C(=O)NCc1ccc([N+](C)(C)Cc3ccccc3)cc1)n2Cc1cccc(C(=N)N)c1,5.41,7.64
N=C(N)c1cccc(Cn2c(C(=O)NCc3nccc4ccccc34)cc3c(O)cccc32)c1,6.54,7.70
Cc1cccc2c1c(Br)c(C(=O)NCc1cccc(C(=N)N)c1)n2Cc1cccc(C(=N)N)c1,5.68,7.30
C[n+]1ccc(CNC(=O)c2cc3cc(N)ccc3n2Cc2cccc(C(=N)N)c2)cc1,4.24,7.00
C[N+](C)(C)c1ccc(CNC(=O)c2cc3c(O)cccc3n2Cc2cccc(C(=N)N)c2)cc1,5.04,
N=C(N)c1cccc(CNC(=O)c2c(Cl)c3ccccc3n2Cc2cccc(C(=N)N)c2)c1,5.37,
Cc1cccc2c1cc(C(=O)NCc1cccc(C(=N)N)c1)n2Cc1cccc(C(=N)N)c1,5.62,
N=C(N)c1cccc(CNC(=O)c2c(Br)c3ccccc3n2Cc2cccc(C(=N)N)c2)c1,5.48,7.59
C[N+](C)(C)c1ccc(CNC(=O)c2cc3cc(Cl)ccc3n2Cc2cccc(C(=N)N)c2)cc1,4.80,6.85
Cc1cccc2c1cc(C(=O)NCc1nccc3ccccc13)n2Cc1cccc(C(=N)N)c1,6.70,7.82
N=C(N)c1cccc(COC(=O)c2cc3ccccc3n2Cc2cccc(C(=N)N)c2)c1,5.61,
Cc1cc(C)cc(CNC(=O)c2cc3c(C)cccc3n2Cc2cccc(C(=N)N)c2)c1,5.85,
N=C(N)c1cccc(Cn2c(C(=O)NCc3cc(C(F)(F)F)cc(C(F)(F)F)c3)cc3c(O)cccc32)c1,5.93,7.00
N=C(N)c1ccc(CNC(=O)c2cc3cc(N)ccc3n2Cc2cccc(C(=N)N)c2)cc1,5.25,7.05
CC(C)(C)OC(=O)Nc1ccc2c(c1)cc(C(=O)NCc1ccc([N+](C)(C)C)cc1)n2Cc1cccc(C(=N)N)c1,4.55,
N=C(N)c1cccc(Cn2c(C(=O)NCc3cc(F)cc(C(F)(F)F)c3)cc3c(O)cccc32)c1,5.77,7.41
Cc1cc(CNC(=O)c2cc3c(O)cccc3n2Cc2cccc(C(=N)N)c2)cc(C(F)(F)F)c1,6.32,
COc1ccc2c(c1)cc(C(=O)NCc1ccc([N+](C)(C)C)cc1)n2Cc1cccc(C(=N)N)c1,,7.03
N=C(N)c1cccc(Cn2c(C(=O)NCc3cccc4ccccc34)c(Cl)c3ccccc32)c1,,6.52
N=C(N)c1cccc(Cn2c(C(=O)NCC(=O)Nc3ccc4ccccc4c3)cc3c(O)cccc32)c1,,5.62
C[n+]1ccc(CNC(=O)c2cc3ccccc3n2Cc2cccc(C(=N)N)c2)cc1,,6.82

# From ChEMBL document CHEMBL1135480, “Design and quantitative structure-activity relationship of 3-amidinobenzyl-1H-indole-2-carboxamides as potent, nonchiral, and selective inhibitors of blood coagulation factor Xa” (J Med Chem, 2002)
